In US20170112777A1, “PROTEIN-BASED PARTICLES FOR DRUG DELIVERY” (Dana-Farber Cancer Institute, Inc., priority 2014, published 2017) one finds Tolerability data, which are given here for 1 compound.

In the data set the test system is healthy balb/C mice. Kind of data set: Tolerability of intraperitoneal pirfenidone dose. The note with it: free drug in 10% ethanol in PBS, 200 mg/kg. The format is in vivo. How it is done:
Pirfenidone was dissolved in a 10% ethanol in PBS solution and administered intraperitoneally to healthy balb/C mice. The intraperitoneal pirfenidone dose was 200 mg/kg. […] However, the same dose was well-tolerated using albumin nanoparticles containing pirfenidone. The nanoparticles were injected twice daily for a total dose of 200 mg/kg per day for 16 days. This example highlights the ability of drug-loaded nanoparticles to slowly release drugs and lower their toxic side effects.

Take `Cc1ccc(=O)n(-c2ccccc2)c1` [Pirfenidone, pirfenidone]: the Tolerability entry is on record as “immediate neurological symptoms in the mice as well as death”.
